Patent publication US9687522B2, “Methods of treating a subject afflicted with an autoimmune disease using predictive biomarkers of clinical response to glatiramer acetate therapy in multiple sclerosis” (TEVA PHARMACEUTICAL INDUSTRIES, LTD., priority 2010, dated 2017)

Legend:
IL-18 = assay: Serum IL-18 by ELISA in GA-treated MS patients; assay type: in vivo, human
Excerpt: (§1) Approximately 60 cc of blood was obtained by venipuncture from each MS patient pre-treatment and at successive time points during treatment (3 months, 6 months, 9-12 months and 24 months). PBMC were purified using Ficoll-Hypaque gradients as described in the supplier's protocol (ICN Biomedicals Inc. Ohio, USA). Samples from collaborating centers were sent via overnight FedEx™ delivery at room temperature and processed immediately upon arrival.
(§2) Interleukin-18 and caspase-1 levels were detected by human ELISA kits (Sandwich ELISA, Bender Nedaystems, USA). The sensitivity of the ELISA was 9.2 and 3.3 pg/ml for IL-18 and caspase-1 respectively. TGF-β, TNF-α, IL-4, IFN-γ, IL-17 and IL-10 levels were detected by human ELISA kits from ebioscience (San Diego Calif., 92121 USA). The sensitivity of the ebioscience kits were 60 pg/ml, 4 pg/ml, 2 pg/ml, 4 pg/ml, 4 pg/ml and 2 pg/ml respectively. BDNF was detected by the Human BDNF ELISA kit from Chemicon International (catalog #CYT306). The sensitivity of the BDNF ELISA was 7.8 pg/ml. […] Duplicates should be within 20% of the mean.

caspase-1 = assay: Serum caspase-1 by ELISA in GA-treated MS patients; assay type: in vivo, human
Excerpt: as §1, §2

IFN-γ = assay: Serum IFN-γ by ELISA in GA-treated MS patients; assay type: in vivo, human
Excerpt: as §1, §2

IL-4/IFN-γ ratio = IL-4/IFN-γ ratio by ELISPOT in ex-vivo PBMC of GA-treated MS patients; assay type: cell-based, human; details: for IL-4/IFN-γ RATIO (ELISPOT): CD3/CD28 stimulated PBMC
Excerpt: as §1
Human IFN-γ (Th1 indicator) and IL-4 (Th2 indicator) were measured by the ELISPOT assay according to the manufacturer's protocol (BD Biosciences, San Diego, Calif., USA). Briefly, ELISPOT plates (PVDF plate, Millipore Corporation, MA, USA) were coated with 100 μl/well of 5 μg/ml capture antibody at 4° C. over night. The plates were then washed with PBS, and incubated with 200 μl/well of blocking solution (culture medium) for 2 hours. PBMC (2×10^5 cells/well for IFN-γ and 4×10^5 cells/well for IL-4 detection) and antigen (GA 40 and 100 μg/ml, TT 5 μg/ml, CD3Ab (2.5 μg/ml)/CD28 Ab (1 μg/ml)) was added and cultured overnight at 37° C. in a 5% CO2 incubator. Samples were tested in triplicate wells in response to each antigen. After overnight culture, the plates were washed twice with deionized water and three times with PBS, then incubated with 100 μl of 2.0 μg/ml biotinylated antibody for 2 hours at room temperature. The plates were then washed three times with wash buffer (0.05% Tween-20 PBS), and incubated with 100 μl of 1:100 dilution of Avidin-HRP for 1 hour at room temperature and washed three times with wash buffer. Finally 100 μl of AEC (3-amino-9-ethyl-carbazole) substrate was added and the reaction was stopped by washing plates with distilled water. Spots were counted and analyzed by CTL Analyzers LLC ELISPOT Plate Reader (Cleveland, Ohio, USA).

PBMC = assay: Lymphoproliferation assay (3H-thymidine) of ex-vivo PBMC; assay type: cell-based, human
Procedure: as §1
2×10^5 PBMC/well were seeded in 96 well U-bottom micro titer plate in the absence of antigen (unstimulated condition) (US) or the presence of GA at 40 and 100 μg/ml (Teva Pharmaceutical Industries, Ltd., Israel), tetanus toxoid (TT 5 μg) obtained from UMASS (University of Mass, Worcester, Mass.). The latter was used as a control antigen. Supernatants were collected from cultured cells at days 1, 3 and 5 for various assays. After 5 days, 1 μCi ^3H-thymidine was added. Cells were harvested 18 hours later using TOMTEC cell harvester (TOMTEC, Hamden Conn.). Incorporated radioactivity was measured using a liquid Scintillation counter (Wallac MicroBeta Trilux, PerkinElmer, Boston, Mass.).

- Serum caspase-1 level (caspase-1; HR/NR, 3 mo): 284 ± 35 pg/mL
- Serum caspase-1 level (caspase-1; HR/NR, 6 mo): 302 ± 42 pg/mL
- Serum caspase-1 level (caspase-1; HR/NR, 9-12 mo): 255 ± 21 pg/mL
- Serum caspase-1 level (caspase-1; HR/NR, 24 mo): 276 ± 7 pg/mL
- Serum caspase-1 level (caspase-1; HR/NR, Pre-Rx): 300 ± 29 pg/mL
- Serum caspase-1 level (caspase-1; R, 3 mo): 279 ± 23 pg/mL
- Serum caspase-1 level (caspase-1; R, 6 mo): 187 ± 21 pg/mL
- Serum caspase-1 level (caspase-1; R, 9-12 mo): 288 ± 12 pg/mL
- Serum caspase-1 level (caspase-1; R, 24 mo): 282 ± 11 pg/mL
- Serum caspase-1 level (caspase-1; R, Pre-Rx): 325 ± 26 pg/mL
- Δ Caspace 6 months, Median (Non-Responders) (caspase-1; serum, change from baseline): −19
- Δ Caspace 6 months, Median (Responders) (caspase-1; serum, change from baseline): −142.5
Substance: Glatiramer acetate [GA]
- Serum IL-18 level (IL-18; HR/NR, 3 mo): 284 ± 35 pg/mL
- Serum IL-18 level (IL-18; HR/NR, 6 mo): 310 ± 39 pg/mL
- Serum IL-18 level (IL-18; HR/NR, 9-12 mo): 283 ± 22 pg/mL
- Serum IL-18 level (IL-18; HR/NR, 24 mo): 265 ± 15 pg/mL
- Serum IL-18 level (IL-18; HR/NR, Pre-Rx): 300 ± 29 pg/mL
- Serum IL-18 level (IL-18; R, 3 mo): 279 ± 23 pg/mL
- Serum IL-18 level (IL-18; R, 6 mo): 189 ± 26 pg/mL
- Serum IL-18 level (IL-18; R, 9-12 mo): 262 ± 15 pg/mL
- Serum IL-18 level (IL-18; R, 24 mo): 260 ± 12 pg/mL
- Serum IL-18 level (IL-18; R, Pre-Rx): 304 ± 26 pg/mL
- Δ IL-18 6 months, Median (Non-Responders) (IL-18; serum, change from baseline): 2
- Δ IL-18 6 months, Median (Responders) (IL-18; serum, change from baseline): −102
- Serum IFN-γ level (IFN-γ; HR/NR, 3 mo): 27 ± 1.45 pg/mL
- Serum IFN-γ level (IFN-γ; HR/NR, 6 mo): 26 ± 1.53 pg/mL
- Serum IFN-γ level (IFN-γ; HR/NR, 9-12 mo): 52 ± 5.8 pg/mL
- Serum IFN-γ level (IFN-γ; HR/NR, 24 mo): 45 ± 5.3 pg/mL
- Serum IFN-γ level (IFN-γ; HR/NR, Pre-Rx): 25 ± 1.7 pg/mL
- Serum IFN-γ level (IFN-γ; R, 3 mo): 25 ± 2.1 pg/mL
- Serum IFN-γ level (IFN-γ; R, 6 mo): 24 ± 1.9 pg/mL
- Serum IFN-γ level (IFN-γ; R, 9-12 mo): 48 ± 6.3 pg/mL
- Serum IFN-γ level (IFN-γ; R, 24 mo): 45 ± 3.8 pg/mL
- Serum IFN-γ level (IFN-γ; R, Pre-Rx): 29 ± 2.3 pg/mL
- IL-4/IFN-γ RATIO (ELISPOT) (IL-4/IFN-γ ratio; HR/NR, 3 mo): 0.08 ± 0.02
- IL-4/IFN-γ RATIO (ELISPOT) (IL-4/IFN-γ ratio; HR/NR, 6 mo): 0.06 ± 0.05
- IL-4/IFN-γ RATIO (ELISPOT) (IL-4/IFN-γ ratio; HR/NR, 9-12 mo): 0.08 ± 0.05
- IL-4/IFN-γ RATIO (ELISPOT) (IL-4/IFN-γ ratio; HR/NR, 24 mo): 0.10 ± 0.05
- IL-4/IFN-γ RATIO (ELISPOT) (IL-4/IFN-γ ratio; HR/NR, Baseline): 0.12 ± 0.05
- IL-4/IFN-γ RATIO (ELISPOT) (IL-4/IFN-γ ratio; R, 3 mo): 0.24 ± 0.04
- IL-4/IFN-γ RATIO (ELISPOT) (IL-4/IFN-γ ratio; R, 6 mo): 0.32 ± 0.07
- IL-4/IFN-γ RATIO (ELISPOT) (IL-4/IFN-γ ratio; R, 9-12 mo): 0.34 ± 0.08
- IL-4/IFN-γ RATIO (ELISPOT) (IL-4/IFN-γ ratio; R, 24 mo): 0.25 ± 0.07
- IL-4/IFN-γ RATIO (ELISPOT) (IL-4/IFN-γ ratio; R, Baseline): 0.11 ± 0.02
- IL-4/IFN-γ ratio in unstimulated and in anti-CD3/CD28 stimulated PBMC (IL-4/IFN-γ ratio; GA-R, during treatment versus pre-treatment): significantly higher among GA-R during treatment compared to pre-treatment levels
- ex-vivo PBMC proliferative response over the course of GA treatment (PBMC; antigens GA 40 and 100 μg/ml, TT 5 μg/ml, ΔCPM): initial increase in the proliferative response to GA and TT at 3 months during treatment followed by a decline after 6 months of treatment
- PBMC proliferation, GA-R versus GA-HR/NR (PBMC; before or during treatment at 3, 6, 12 months or 2 years, p >0.05): no difference in PBMC proliferation to GA or TT between GA-R and GA-HR/NR
